Test results published in ChEMBL document CHEMBL1128749, “1-Aminoindan-1,5-dicarboxylic acid: a novel antagonist at phospholipase C-linked metabotropic glutamate receptors” (J Med Chem, 1995).

Columns and labels:
[1] = target: T1, Metabotropic glutamate receptor 2 (Homo sapiens, UniProt Q14416); assay: Ability to inhibit mGluR2-alpha induced cAMP formation was determined at BHK cells at 100 Micro M Concentration; Not effective at the highest concentration tested (100 µM)
[2] = target: T2, Metabotropic glutamate receptor 1 (Homo sapiens, UniProt Q13255); assay: Ability to inhibit mGluR1-alpha-mediated PI (phospho inositol) hydrolysis was determined at BHK cells at 100 Micro M Concentration; Not effective at the highest concentration tested (100 uM); format: functional, cell-based, Mesocricetus auratus
T2 sequence (Q13255 whole entry): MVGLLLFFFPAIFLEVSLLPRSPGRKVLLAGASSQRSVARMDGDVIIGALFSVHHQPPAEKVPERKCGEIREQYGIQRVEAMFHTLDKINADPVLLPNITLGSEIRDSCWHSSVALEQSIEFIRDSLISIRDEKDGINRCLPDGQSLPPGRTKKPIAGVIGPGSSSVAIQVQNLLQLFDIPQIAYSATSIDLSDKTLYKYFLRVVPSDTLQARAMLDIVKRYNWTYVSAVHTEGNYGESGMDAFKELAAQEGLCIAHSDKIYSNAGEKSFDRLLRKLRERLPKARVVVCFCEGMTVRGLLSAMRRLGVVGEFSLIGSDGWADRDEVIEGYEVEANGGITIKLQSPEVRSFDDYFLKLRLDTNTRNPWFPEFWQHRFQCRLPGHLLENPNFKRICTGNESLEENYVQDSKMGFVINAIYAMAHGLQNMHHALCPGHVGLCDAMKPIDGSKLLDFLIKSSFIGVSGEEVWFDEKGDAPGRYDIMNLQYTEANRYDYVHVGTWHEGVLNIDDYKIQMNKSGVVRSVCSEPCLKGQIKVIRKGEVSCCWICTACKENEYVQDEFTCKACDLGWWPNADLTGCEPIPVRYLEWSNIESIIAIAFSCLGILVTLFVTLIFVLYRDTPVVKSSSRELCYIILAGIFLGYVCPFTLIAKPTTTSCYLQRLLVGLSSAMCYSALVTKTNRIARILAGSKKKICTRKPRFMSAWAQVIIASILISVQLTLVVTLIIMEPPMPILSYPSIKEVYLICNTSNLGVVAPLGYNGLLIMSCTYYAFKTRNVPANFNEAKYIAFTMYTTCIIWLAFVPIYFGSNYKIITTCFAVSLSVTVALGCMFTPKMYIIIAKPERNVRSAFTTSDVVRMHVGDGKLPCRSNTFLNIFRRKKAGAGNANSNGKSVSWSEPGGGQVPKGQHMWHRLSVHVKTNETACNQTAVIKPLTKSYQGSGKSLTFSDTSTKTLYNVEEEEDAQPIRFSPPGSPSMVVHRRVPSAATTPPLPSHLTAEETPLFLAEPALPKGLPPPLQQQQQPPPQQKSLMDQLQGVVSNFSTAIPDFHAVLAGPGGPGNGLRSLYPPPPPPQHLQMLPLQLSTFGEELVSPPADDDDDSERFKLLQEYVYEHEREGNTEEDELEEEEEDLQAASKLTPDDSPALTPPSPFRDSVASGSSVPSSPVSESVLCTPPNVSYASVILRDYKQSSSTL

[3] = target: T3, Metabotropic glutamate receptor 4 (Homo sapiens, UniProt Q14833); assay: Ability to inhibit mGluR4-alpha induced cAMP formation was determined at BHK cells at 100 Micro M Concentration; Not effective at the highest concentration tested (100 uM); format: functional, cell-based, Mesocricetus auratus
T3 sequence (Q14833 whole entry): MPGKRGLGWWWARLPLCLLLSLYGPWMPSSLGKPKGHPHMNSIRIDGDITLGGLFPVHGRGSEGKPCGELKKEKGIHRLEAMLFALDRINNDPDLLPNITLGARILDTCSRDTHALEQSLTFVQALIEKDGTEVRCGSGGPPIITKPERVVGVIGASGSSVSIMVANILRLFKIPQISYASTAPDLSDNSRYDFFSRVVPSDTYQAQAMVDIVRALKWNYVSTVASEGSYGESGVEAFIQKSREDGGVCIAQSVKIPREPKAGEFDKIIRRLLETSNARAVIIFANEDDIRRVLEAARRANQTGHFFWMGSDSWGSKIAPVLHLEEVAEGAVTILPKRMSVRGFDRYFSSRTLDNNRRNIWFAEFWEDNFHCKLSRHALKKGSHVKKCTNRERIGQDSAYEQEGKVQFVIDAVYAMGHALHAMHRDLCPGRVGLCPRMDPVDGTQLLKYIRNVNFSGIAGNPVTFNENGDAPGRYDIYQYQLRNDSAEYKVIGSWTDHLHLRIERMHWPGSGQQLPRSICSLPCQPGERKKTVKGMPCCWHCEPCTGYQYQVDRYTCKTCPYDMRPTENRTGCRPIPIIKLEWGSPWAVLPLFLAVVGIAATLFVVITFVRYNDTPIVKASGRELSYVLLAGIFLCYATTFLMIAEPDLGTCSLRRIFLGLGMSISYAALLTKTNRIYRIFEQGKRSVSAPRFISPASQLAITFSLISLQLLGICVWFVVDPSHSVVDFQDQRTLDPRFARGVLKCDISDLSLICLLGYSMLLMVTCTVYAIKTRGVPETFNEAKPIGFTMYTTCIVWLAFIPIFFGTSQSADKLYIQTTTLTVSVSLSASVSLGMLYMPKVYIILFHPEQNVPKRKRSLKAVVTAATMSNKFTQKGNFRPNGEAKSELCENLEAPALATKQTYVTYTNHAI

[4] = target: T3, Metabotropic glutamate receptor 4; assay: Ability to inhibit mGluR4-alpha induced cAMP formation was determined at BHK cells at 100 Micro M Concentration; format: functional, cell-based, Mesocricetus auratus
[5] = target: T2, Metabotropic glutamate receptor 1; assay: Ability to inhibit mGluR1-alpha-mediated PI (phospho inositol) hydrolysis was determined at BHK cells at 100 Micro M Concentration; format: functional, cell-based, Mesocricetus auratus
[6] = target: T1, Metabotropic glutamate receptor 2; assay: Ability to inhibit mGluR2-alpha induced cAMP formation was determined at BHK cells at 100 Micro M Concentration; format: functional, cell-based, Mesocricetus auratus
[7] = target: T1, Metabotropic glutamate receptor 2; assay: Ability to inhibit mGluR2-alpha induced cAMP formation was determined at BHK cells at 100 Micro M Concentration; Not effective at the highest concentration tested (100 uM); format: functional, cell-based, Mesocricetus auratus

T1 sequence (Q14416 whole entry): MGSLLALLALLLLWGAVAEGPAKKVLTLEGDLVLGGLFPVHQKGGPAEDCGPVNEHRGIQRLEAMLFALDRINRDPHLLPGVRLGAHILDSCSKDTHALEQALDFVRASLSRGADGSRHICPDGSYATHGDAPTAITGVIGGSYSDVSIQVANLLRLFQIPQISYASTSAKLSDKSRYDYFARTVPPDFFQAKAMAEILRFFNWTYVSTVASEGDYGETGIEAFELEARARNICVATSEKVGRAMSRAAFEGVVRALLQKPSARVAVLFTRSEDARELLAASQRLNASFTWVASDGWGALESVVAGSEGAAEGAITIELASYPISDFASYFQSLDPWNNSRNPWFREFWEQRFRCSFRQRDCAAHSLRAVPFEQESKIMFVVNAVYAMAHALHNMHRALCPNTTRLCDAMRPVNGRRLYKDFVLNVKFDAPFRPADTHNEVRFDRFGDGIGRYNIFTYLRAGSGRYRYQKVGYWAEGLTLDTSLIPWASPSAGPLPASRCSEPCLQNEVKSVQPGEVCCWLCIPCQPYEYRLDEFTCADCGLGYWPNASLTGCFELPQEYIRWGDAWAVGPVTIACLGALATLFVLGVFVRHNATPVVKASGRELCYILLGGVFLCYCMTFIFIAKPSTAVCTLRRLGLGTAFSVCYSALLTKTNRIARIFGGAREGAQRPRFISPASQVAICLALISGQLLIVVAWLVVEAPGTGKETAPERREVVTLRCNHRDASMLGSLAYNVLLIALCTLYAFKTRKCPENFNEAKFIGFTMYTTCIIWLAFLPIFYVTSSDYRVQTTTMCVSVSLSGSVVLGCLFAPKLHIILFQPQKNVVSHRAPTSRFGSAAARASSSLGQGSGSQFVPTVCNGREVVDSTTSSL

Row | IC50 [1] | IC50 [2] | IC50 [3] | IC50 [4] | IC50 [5] | IC50 [6] | IC50 [7] | Compound
1 | No effect | No effect | No effect | – | – | – | – | NC1(C(=O)O)CCc2ccc(C(=O)O)cc21 (stereo not drawn)
2 | – | – | – | > 1000 µM | 40 µM | 48 µM | – | NC(C(=O)O)c1ccc(C(=O)O)c(O)c1 (stereo not drawn)
3 | – | – | No effect | – | 7 µM | – | No effect | NC1(C(=O)O)CCc2cc(C(=O)O)ccc21 (stereo not drawn)
4 | – | – | – | > 1000 µM | 155 µM | 340 µM | – | CC(N)(C(=O)O)c1ccc(C(=O)O)cc1 (stereo not drawn)
5 | – | – | – | > 1000 µM | 65 µM | 577 µM | – | NC(C(=O)O)c1ccc(C(=O)O)cc1 (stereo not drawn)
6 | – | No effect | No effect | – | – | – | No effect | NC1(C(=O)O)CCc2c(C(=O)O)cccc21 (stereo not drawn)
